According to US9493446B2, “Orexin receptor antagonists which are [ortho bi-(hetero-)aryl]-[2-(meta bi-(hetero-)aryl)-pyrrolidin-1-yl]-methanone derivatives” (Actelion Pharmaceuticals Ltd, priority 2012, dated 2016):
Read-outs that look alike come from different tables or passages of the source.

Legend:
orexin-1 = orexin-1 (Homo sapiens (Human), UniProt O43613); experiment: Intracellular calcium measurement (FLIPR), CHO cells expressing human orexin-1 receptor, 3 nM orexin-A; type: cell-based; details: read-out: IC50 OX1
Chain of orexin-1 (O43613 whole entry): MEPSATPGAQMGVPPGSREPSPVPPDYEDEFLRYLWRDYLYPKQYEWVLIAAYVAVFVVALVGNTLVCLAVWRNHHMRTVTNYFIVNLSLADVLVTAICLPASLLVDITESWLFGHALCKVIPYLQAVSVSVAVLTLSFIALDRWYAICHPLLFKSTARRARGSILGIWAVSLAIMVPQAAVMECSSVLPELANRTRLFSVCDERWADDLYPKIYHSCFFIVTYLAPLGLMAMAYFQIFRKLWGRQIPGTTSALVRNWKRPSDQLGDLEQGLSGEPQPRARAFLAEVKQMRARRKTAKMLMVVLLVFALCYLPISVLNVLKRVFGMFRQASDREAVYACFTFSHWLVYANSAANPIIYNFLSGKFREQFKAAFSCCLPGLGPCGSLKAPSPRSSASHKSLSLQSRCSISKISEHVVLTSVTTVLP
In short: (§1)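 Fluo-4 AM-loaded CHO cells; antagonist preincubation 120 min, then 3 nM orexin-A (final) in HBSS/0.1% BSA/20 mM HEPES. FLIPR read at 1 s intervals; peak height vs. agonist-plus-vehicle control → IC50.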

human orexin-2 receptor = human orexin-2 receptor (Homo sapiens (Human), UniProt O43614); experiment: Intracellular calcium measurement (FLIPR), CHO cells expressing human orexin-2 receptor, 3 nM orexin-A; type: cell-based; details: read-out: IC50 OX2
Chain of human orexin-2 receptor (O43614 whole entry): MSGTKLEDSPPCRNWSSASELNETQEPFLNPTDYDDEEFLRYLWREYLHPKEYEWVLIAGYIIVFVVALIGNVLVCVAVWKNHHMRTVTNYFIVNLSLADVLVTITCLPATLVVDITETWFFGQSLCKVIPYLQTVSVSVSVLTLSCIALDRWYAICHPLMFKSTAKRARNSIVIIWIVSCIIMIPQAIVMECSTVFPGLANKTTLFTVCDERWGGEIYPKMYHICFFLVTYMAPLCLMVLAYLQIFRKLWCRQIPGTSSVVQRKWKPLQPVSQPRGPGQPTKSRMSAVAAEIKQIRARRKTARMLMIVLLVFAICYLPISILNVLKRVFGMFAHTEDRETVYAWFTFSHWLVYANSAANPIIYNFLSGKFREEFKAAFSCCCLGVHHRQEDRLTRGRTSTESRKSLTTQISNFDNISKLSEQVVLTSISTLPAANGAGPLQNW
In short: as §1

[1] = CHO cells expressing human orexin-1 receptor, FLIPR, 3 nM orexin-A, geometric mean if determined several times
[2] = CHO cells expressing human orexin-2 receptor, FLIPR, 3 nM orexin-A, geometric mean if determined several times

IC50 (orexin-1; [1])	SMILES	IC50 (human orexin-2 receptor; [2])	IC50 (human orexin-2 receptor)	IC50 (orexin-1)
0.128 µM	COc1cc(C(=O)N2CCC[C@H]2c2noc(-c3cccc(OC)c3C)n2)c(-n2nccn2)cc1C [compound 358, {(S)-2-[5-(3-Methoxy-2-methyl-phenyl)-[1,2,4]oxadiazol-3-yl]-pyrrolidin-1-yl}-(5-methoxy-4-methyl-2-[1,2,3]triazol-2-yl-phenyl)-methanone]	0.01 µM		
0.325 µM	COc1cccc(-c2nc([C@@H]3CCCN3C(=O)c3cc(C)ccc3-n3nccn3)no2)c1C [compound 359, {(S)-2-[5-(3-Methoxy-2-methyl-phenyl)-[1,2,4]oxadiazol-3-yl]-pyrrolidin-1-yl}-(5-methyl-2-[1,2,3]triazol-2-yl-phenyl)-methanone]	0.03 µM		
0.265 µM	COc1cccc(-c2nc([C@@H]3CCCN3C(=O)c3ccc(C)cc3-n3nccn3)no2)c1C [compound 364, {(S)-2-[5-(3-Methoxy-2-methyl-phenyl)-[1,2,4]oxadiazol-3-yl]-pyrrolidin-1-yl}-(4-methyl-2-[1,2,3]triazol-2-yl-phenyl)-methanone]	0.157 µM		
	Cc1cc(-n2nccn2)c(C(=O)N2CCC[C@H]2c2noc(-c3cccc(Cl)c3C)n2)cc1Cl [compound 371]	0.007 µM		0.018 µM
0.377 µM	COc1cc(C(=O)N2CCC[C@H]2c2noc(-c3cccc(F)c3C)n2)c(-n2nccn2)cc1F [compound 372, (4-Fluoro-5-methoxy-2-[1,2,3]triazol-2-yl-phenyl)-{(S)-2-[5-(3-fluoro-2-methyl-phenyl)-[1,2,4]oxadiazol-3-yl]-pyrrolidin-1-yl}-methanone]	0.029 µM		
0.212 µM	COc1cc(C(=O)N2CCC[C@H]2c2noc(-c3cccc(F)c3OC)n2)c(-n2nccn2)cc1F [compound 373, {(S)-2-[5-(3-Fluoro-2-methoxy-phenyl)-[1,2,4]oxadiazol-3-yl]-pyrrolidin-1-yl}-(4-fluoro-5-methoxy-2-[1,2,3]triazol-2-yl-phenyl)-methanone]	0.005 µM		
0.018 µM	Cc1ccc(C(=O)N2CCC[C@H]2c2noc(-c3ccccc3OC(F)(F)F)n2)c(-n2nccn2)c1 [compound 374, (4-Methyl-2-[1,2,3]triazol-2-yl-phenyl)-{(S)-2-[5-(2-trifluoromethoxy-phenyl)-[1,2,4]oxadiazol-3-yl]-pyrrolidin-1-yl}-methanone]	0.011 µM		
	O=C(c1ccc(Cl)cc1-n1nccn1)N1CCC[C@H]1c1noc(-c2ccccc2OC(F)(F)F)n1 [compound 376]	0.011 µM		0.023 µM
0.01 µM	COc1cc(C)cc(-c2nc([C@@H]3CCCN3C(=O)c3cc(C)c(C)cc3-n3nccn3)no2)c1 [compound 382, (4,5-Dimethyl-2-[1,2,3]triazol-2-yl-phenyl)-{(S)-2-[5-(3-methoxy-5-methyl-phenyl)-[1,2,4]oxadiazol-3-yl]-pyrrolidin-1-yl}-methanone]	0.004 µM		
0.03 µM	COc1ccc(C)c(-c2nc([C@@H]3CCCN3C(=O)c3cc(C)c(C)cc3-n3nccn3)no2)c1 [compound 383, (4,5-Dimethyl-2-[1,2,3]triazol-2-yl-phenyl)-{(S)-2-[5-(5-methoxy-2-methyl-phenyl)-[1,2,4]oxadiazol-3-yl]-pyrrolidin-1-yl}-methanone]	0.004 µM		
0.022 µM	COc1ccc(C)cc1-c1nc([C@@H]2CCCN2C(=O)c2cc(C)c(C)cc2-n2nccn2)no1 [compound 384, (4,5-Dimethyl-2-[1,2,3]triazol-2-yl-phenyl)-{(S)-2-[5-(2-methoxy-5-methyl-phenyl)-[1,2,4]oxadiazol-3-yl]-pyrrolidin-1-yl}-methanone]	0.002 µM		
0.026 µM	COc1cc(C)cc(-c2nc([C@@H]3CCCN3C(=O)c3cc(OC)c(C)cc3-n3nccn3)no2)c1 [compound 385, {(S)-2-[5-(3-Methoxy-5-methyl-phenyl)-[1,2,4]oxadiazol-3-yl]-pyrrolidin-1-yl}-(5-methoxy-4-methyl-2-[1,2,3]triazol-2-yl-phenyl)-methanone]	0.008 µM		
0.118 µM	COc1ccc(C)c(-c2nc([C@@H]3CCCN3C(=O)c3cc(OC)c(C)cc3-n3nccn3)no2)c1 [compound 386, {(S)-2-[5-(5-Methoxy-2-methyl-phenyl)-[1,2,4]oxadiazol-3-yl]-pyrrolidin-1-yl}-(5-methoxy-4-methyl-2-[1,2,3]triazol-2-yl-phenyl)-methanone]	0.007 µM		
0.057 µM	COc1cc(C(=O)N2CCC[C@H]2c2noc(-c3cc(C)ccc3OC)n2)c(-n2nccn2)cc1C [compound 387, {(S)-2-[5-(2-Methoxy-5-methyl-phenyl)-[1,2,4]oxadiazol-3-yl]-pyrrolidin-1-yl}-(5-methoxy-4-methyl-2-[1,2,3]triazol-2-yl-phenyl)-methanone]	0.003 µM		
0.035 µM	CCc1ccccc1-c1nc([C@@H]2CCCN2C(=O)c2cc(C)ccc2-n2nccn2)no1 [compound 389, {(S)-2-[5-(2-Ethyl-phenyl)-[1,2,4]oxadiazol-3-yl]-pyrrolidin-1-yl}-(5-methyl-2-[1,2,3]triazol-2-yl-phenyl)-methanone]	0.015 µM		
0.073 µM	Cc1ccc(-n2nccn2)c(C(=O)N2CCC[C@H]2c2noc(-c3cc(C)ccc3C)n2)c1 [compound 390, {(S)-2-[5-(2,5-Dimethyl-phenyl)-[1,2,4]oxadiazol-3-yl]-pyrrolidin-1-yl}-(5-methyl-2-[1,2,3]triazol-2-yl-phenyl)-methanone]	0.006 µM		
0.068 µM	Cc1ccc(C(=O)N2CCC[C@H]2c2noc(-c3cccc(C)c3C)n2)c(-n2nccn2)c1 [compound 391, {(S)-2-[5-(2,3-Dimethyl-phenyl)-[1,2,4]oxadiazol-3-yl]-pyrrolidin-1-yl}-(4-methyl-2-[1,2,3]triazol-2-yl-phenyl)-methanone]	0.014 µM		
0.017 µM	CCc1ccccc1-c1nc([C@@H]2CCCN2C(=O)c2ccc(C)cc2-n2nccn2)no1 [compound 392, {(S)-2-[5-(2-Ethyl-phenyl)-[1,2,4]oxadiazol-3-yl]-pyrrolidin-1-yl}-(4-methyl-2-[1,2,3]triazol-2-yl-phenyl)-methanone]	0.017 µM		
0.057 µM	Cc1ccc(C)c(-c2nc([C@@H]3CCCN3C(=O)c3ccc(C)cc3-n3nccn3)no2)c1 [compound 393, {(S)-2-[5-(2,5-Dimethyl-phenyl)-[1,2,4]oxadiazol-3-yl]-pyrrolidin-1-yl}-(4-methyl-2-[1,2,3]triazol-2-yl-phenyl)-methanone]	0.01 µM		
	Cc1cccc(-c2nc([C@@H]3CCCN3C(=O)c3cc(Cl)ccc3-n3nccn3)no2)c1C [compound 394]	0.012 µM		0.134 µM
	CCc1ccccc1-c1nc([C@@H]2CCCN2C(=O)c2cc(Cl)ccc2-n2nccn2)no1 [compound 395]		0.01 µM	0.031 µM
	Cc1ccc(C)c(-c2nc([C@@H]3CCCN3C(=O)c3cc(Cl)ccc3-n3nccn3)no2)c1 [compound 396]		0.015 µM	0.134 µM
	Cc1cccc(-c2nc([C@@H]3CCCN3C(=O)c3ccc(Cl)cc3-n3nccn3)no2)c1C [compound 397]	0.005 µM		0.085 µM
	CCc1ccccc1-c1nc([C@@H]2CCCN2C(=O)c2ccc(Cl)cc2-n2nccn2)no1 [compound 398]	0.018 µM		0.033 µM

SMILES	IC50 (orexin-1; [1])	IC50 (human orexin-2 receptor; [2])	IC50 (human orexin-2 receptor)	IC50 (orexin-1)
COc1c(Cl)cccc1-c1nc([C@@H]2CCCN2C(=O)c2cc(C)c(C)cc2-n2nccn2)no1 [compound 360]	0.007 µM	0.001 µM		
COc1cccc(-c2nc([C@@H]3CCCN3C(=O)c3cc(Cl)ccc3-n3nccn3)no2)c1C [compound 361]	0.127 µM	0.061 µM		
COc1cccc(-c2nc([C@@H]3CCCN3C(=O)c3ccc(Cl)cc3-n3nccn3)no2)c1C [compound 362]	0.171 µM		0.1 µM	
COc1c(F)cccc1-c1nc([C@@H]2CCCN2C(=O)c2cccc(Cl)c2-n2nccn2)no1 [compound 363]	0.155 µM	0.111 µM		
Cc1cc(-n2nccn2)c(C(=O)N2CCC[C@H]2c2noc(-c3ccccc3OC(F)(F)F)n2)cc1Cl [compound 365]	0.013 µM	0.006 µM		
CCOc1c(F)cccc1-c1nc([C@@H]2CCCN2C(=O)c2cc(Cl)c(C)cc2-n2nccn2)no1 [compound 366]	0.005 µM	0.003 µM		
COc1cc(C(=O)N2CCC[C@H]2c2noc(-c3cccc(Cl)c3C)n2)c(-n2nccn2)cc1Cl [compound 367]	0.02 µM	0.002 µM		
COc1cc(C(=O)N2CCC[C@H]2c2noc(-c3cccc(F)c3OC)n2)c(-n2nccn2)cc1Cl [compound 368]	0.011 µM	0.001 µM		
CCOc1c(F)cccc1-c1nc([C@@H]2CCCN2C(=O)c2cc(OC)c(Cl)cc2-n2nccn2)no1 [compound 369]	0.015 µM	0.002 µM		
CCOc1ncccc1-c1nc([C@@H]2CCCN2C(=O)c2cc(OC)c(Cl)cc2-n2nccn2)no1 [compound 370]	0.009 µM	0.001 µM		
COc1cc(C(=O)N2CCC[C@H]2c2noc(-c3ccccc3OC(F)(F)F)n2)c(-n2nccn2)cc1Cl [compound 375]	0.067 µM	0.006 µM		
O=C(c1cc(Cl)ccc1-n1nccn1)N1CCC[C@H]1c1noc(-c2ccccc2OC(F)(F)F)n1 [compound 377]	0.068 µM	0.015 µM		
COc1c(F)cccc1-c1nc([C@@H]2CCCN2C(=O)c2ccc(Cl)cc2-n2nccn2)no1 [compound 378]	0.03 µM		0.002 µM	
Cc1c(F)cccc1-c1nc([C@@H]2CCCN2C(=O)c2ccc(Cl)cc2-n2nccn2)no1 [compound 379]	0.052 µM	0.005 µM		
COc1ccc(C)cc1-c1nc([C@@H]2CCCN2C(=O)c2ccc(Cl)cc2-n2nccn2)no1 [compound 381]	0.136 µM	0.028 µM		
